Values quoted from earlier work as cited in patent US11723862B2, “Dosage form with sustained release melatonin pellets” (SOCIÉTÉ DES PRODUITS NESTLÉ S.A., priority 2020, dated 2023).

Details: above pH=4.4

COc1ccc2[nH]cc(CCNC(C)=O)c2c1 [melatonin]
aqueous solubility: low
